{
  "source": "paper PMC8010720",
  "about": "(bioRxiv, 2021)",
  "key": {"A549 cells": {"tested_on": "A549 cells", "assay_type": "cell-based, human", "conditions": "for induction of phospholipidosis: NBD-PE staining, A549 cells"}, "SARS-CoV-2 [1]": {"tested_on": "SARS-CoV-2", "test": "Cellular antiviral assays against SARS-CoV-2", "assay_type": "cell-based"}, "SARS-CoV-2 [2]": {"tested_on": "SARS-CoV-2", "conditions": "for effect on lung viral titer / viral propagation in mice: in vivo"}, "[3]": {"tested_on": "SARS-CoV-2 infected A549-ACE2 cells", "assay_type": "cell-based"}, "human sigma-1 receptor": {"target": "human sigma-1 receptor (Homo sapiens, UniProt Q99720)", "sequence (Q99720 whole entry)": "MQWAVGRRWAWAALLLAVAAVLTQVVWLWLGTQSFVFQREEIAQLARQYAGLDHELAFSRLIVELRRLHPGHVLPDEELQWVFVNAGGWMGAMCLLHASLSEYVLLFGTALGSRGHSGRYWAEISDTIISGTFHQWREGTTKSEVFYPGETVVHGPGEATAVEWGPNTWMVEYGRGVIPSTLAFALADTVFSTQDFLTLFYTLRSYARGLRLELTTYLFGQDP", "assay_type": "binding"}, "human sigma-2 receptor": {"target": "human sigma-2 receptor (Homo sapiens, UniProt Q5BJF2)", "sequence (Q5BJF2 whole entry)": "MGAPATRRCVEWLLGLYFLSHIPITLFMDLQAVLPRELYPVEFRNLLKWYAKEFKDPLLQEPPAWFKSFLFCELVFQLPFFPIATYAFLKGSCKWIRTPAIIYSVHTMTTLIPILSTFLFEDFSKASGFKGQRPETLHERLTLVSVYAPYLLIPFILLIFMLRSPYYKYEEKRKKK", "conditions": "radioligand displacement, fractional binding at 1 μM (Fig. 2E)"}},
  "note": "Entries after “also recorded” stand apart in the source; their conditions may differ. Like-named read-outs stand apart in the source and are kept apart here.",
  "data": [
    {"compound": "CCSc1ccc2c(c1)N(CCCN1CCN(C)CC1)c1ccccc1S2", "note": "[Thiethylperazine]", "values": [
      {"measurement": "phospholipidosis inducer class", "setting": "A549 cells; DIPL relative to amiodarone", "value": "medium (key: > 50% of the strong phospholipidosis inducer amiodarone; medium: 50% > DIPL > 25% of amiodarone)"}
    ]},
    {"compound": "CNCC[C@H](Oc1cccc2ccccc12)c1cccs1", "note": "[Duloxetine]", "values": [
      {"measurement": "phospholipidosis inducer class", "setting": "A549 cells", "value": "strong (key: > 50% of the strong phospholipidosis inducer amiodarone; medium: 50% > DIPL > 25% of amiodarone)"}
    ]},
    {"compound": "CC/C(=C(\\c1ccccc1)c1ccc(OCCN(C)C)cc1)c1ccccc1", "note": "[Tamoxifen]", "values": [
      {"measurement": "antiviral activity against SARS-CoV-2 in cells", "setting": "SARS-CoV-2 [1]", "value": "mid-to high-nM activities against viral replication"},
      {"measurement": "effect on lung viral titer / viral propagation in mice", "setting": "SARS-CoV-2 [2]", "value": "no substantial effect on viral propagation"}
    ]},
    {"compound": "CN[C@H]1CC[C@@H](c2ccc(Cl)c(Cl)c2)c2ccccc21", "note": "[Sertraline]", "values": [
      {"measurement": "antiviral activity against SARS-CoV-2 in cells", "setting": "SARS-CoV-2 [1]", "value": "mid-to high-nM activities against viral replication"},
      {"measurement": "phospholipidosis (DIPL)", "setting": "A549 cells", "value": "> 50 % of amiodarone"},
      {"measurement": "effect on lung viral titer / viral propagation in mice", "setting": "SARS-CoV-2 [2]", "value": "no substantial effect on viral propagation"},
      {"measurement": "NBD-PE aggregates vs DMSO", "setting": "[3]", "value": "substantial increases in NBD-PE aggregates"}
    ]},
    {"compound": "CCCCc1oc2ccccc2c1C(=O)c1cc(I)c(OCCN(CC)CC)c(I)c1", "note": "[Amiodarone]", "values": [
      {"measurement": "antiviral activity against SARS-CoV-2 in cells", "setting": "SARS-CoV-2 [1]", "value": "mid-to high-nM activities against viral replication"},
      {"measurement": "effect on lung viral titer / viral propagation in mice", "setting": "SARS-CoV-2 [2]", "value": "no substantial effect on viral propagation"},
      {"measurement": "NBD-PE aggregates vs DMSO", "setting": "[3]", "value": "substantial increases in NBD-PE aggregates"}
    ]},
    {"compound": "Cc1cc2c(s1)Nc1ccccc1N=C2N1CCN(C)CC1", "note": "[Olanzapine]", "values": [
      {"measurement": "phospholipidosis inducer class", "setting": "A549 cells; DIPL relative to amiodarone", "value": "medium (key: > 50% of the strong phospholipidosis inducer amiodarone; medium: 50% > DIPL > 25% of amiodarone)"},
      {"measurement": "induction of phospholipidosis", "setting": "A549 cells", "value": "did induce phospholipidosis"}
    ]},
    {"compound": "COc1cc2nc(N3CCCN(C)CC3)nc(NC3CCN(Cc4ccccc4)CC3)c2cc1OC", "note": "[Bix 01294]", "values": [
      {"measurement": "induction of phospholipidosis", "setting": "A549 cells", "value": "confirmed phospholipidosis-inducing activity"},
      {"measurement": "NBD-PE aggregates vs DMSO", "setting": "[3]", "value": "substantial increases in NBD-PE aggregates"},
      {"measurement": "SARS-CoV-2 spike protein signal", "setting": "[3]", "value": "nearly complete loss of spike protein signal"}
    ]},
    {"compound": "CC1CCN(CCCC(=O)c2ccc(F)cc2)CC1", "note": "[Melperone]", "values": [
      {"measurement": "antiviral activity against SARS-CoV-2 in cells", "setting": "SARS-CoV-2 [1]", "value": "not antiviral; also recorded: no measurable antiviral effects"},
      {"measurement": "induction of phospholipidosis", "setting": "A549 cells", "value": "did not induce phospholipidosis; also recorded: non-phospholipidosis inducing"}
    ]},
    {"compound": "CN1CCC[C@@H]1CCO[C@](C)(c1ccccc1)c1ccc(Cl)cc1", "note": "[Clemastine]", "values": [
      {"measurement": "phospholipidosis (DIPL)", "setting": "A549 cells", "value": "> 50 % of amiodarone"}
    ]},
    {"compound": "Cc1c2ccncc2c(C)c2c1[nH]c1ccccc12", "note": "[Ellipticine]", "values": [
      {"measurement": "phospholipidosis inducer class", "setting": "A549 cells; DIPL relative to amiodarone", "value": "medium (key: > 50% of the strong phospholipidosis inducer amiodarone; medium: 50% > DIPL > 25% of amiodarone)"},
      {"measurement": "induction of phospholipidosis", "setting": "A549 cells", "value": "confirmed phospholipidosis-inducing activity"}
    ]},
    {"compound": "COc1cccc2c1CCCC2CCCN1CCN(C2CCCCC2)CC1", "note": "(stereo not shown) [PB28]", "values": [
      {"measurement": "sigma-1 binding", "setting": "human sigma-1 receptor", "value": "strong ligand of both sigma-1 and sigma-2"},
      {"measurement": "induction of phospholipidosis", "setting": "A549 cells", "value": "both induce phospholipidosis"},
      {"measurement": "effect on lung viral titer / viral propagation in mice", "setting": "SARS-CoV-2 [2]", "value": "no substantial effect on viral propagation"},
      {"measurement": "NBD-PE aggregates vs DMSO", "setting": "[3]", "value": "substantial increases in NBD-PE aggregates"},
      {"measurement": "sigma-2 binding", "setting": "human sigma-2 receptor", "value": "strong ligand of both sigma-1 and sigma-2"}
    ]},
    {"compound": "Cc1ccccc1NC(=N)Nc1ccccc1C", "note": "[DTG, ditolylguanidine]", "values": [
      {"measurement": "antiviral activity against SARS-CoV-2 in cells", "setting": "SARS-CoV-2 [1]", "value": "not antiviral; also recorded: no measurable antiviral effects"},
      {"measurement": "induction of phospholipidosis", "setting": "A549 cells", "value": "did not induce phospholipidosis"}
    ]},
    {"compound": "CN(C)CCOc1ccc(/C(=C(/CCCl)c2ccccc2)c2ccccc2)cc1", "note": "[Toremifene]", "values": [
      {"measurement": "phospholipidosis inducer class", "setting": "A549 cells; DIPL relative to amiodarone", "value": "strong (key: > 50% of the strong phospholipidosis inducer amiodarone; medium: 50% > DIPL > 25% of amiodarone)"}
    ]},
    {"compound": "CC[C@H]1OC(=O)[C@H](C)[C@@H](O[C@H]2C[C@@](C)(OC)[C@@H](O)[C@H](C)O2)[C@H](C)[C@@H](O[C@@H]2O[C@H](C)C[C@H](N(C)C)[C@H]2O)[C@](C)(O)C[C@@H](C)CN(C)[C@H](C)[C@@H](O)[C@]1(C)O", "note": "[Azithromycin]", "values": [
      {"measurement": "induction of phospholipidosis", "setting": "A549 cells", "value": "confirmed phospholipidosis-inducing activity"}
    ]},
    {"compound": "CCN(CCO)CCCC(C)Nc1ccnc2cc(Cl)ccc12", "note": "(stereo not shown) [Hydroxychloroquine]", "values": [
      {"measurement": "NBD-PE aggregates vs DMSO", "setting": "[3]", "value": "substantial increases in NBD-PE aggregates"}
    ]},
    {"compound": "CC(C)(C)c1ccc(C(=O)CCCN2CCC(OC(c3ccccc3)c3ccccc3)CC2)cc1", "note": "[Ebastine]", "values": [
      {"measurement": "induction of phospholipidosis", "setting": "A549 cells", "value": "confirmed phospholipidosis-inducing activity"}
    ]},
    {"compound": "CN1CCC(CN2c3ccccc3Sc3ccccc32)C1", "note": "(stereo not shown) [Methdilazine]", "values": [
      {"measurement": "phospholipidosis inducer class", "setting": "A549 cells; DIPL relative to amiodarone", "value": "medium (key: > 50% of the strong phospholipidosis inducer amiodarone; medium: 50% > DIPL > 25% of amiodarone)"}
    ]},
    {"compound": "O=C1NCN(c2ccccc2)C12CCN(CCCC(c1ccc(F)cc1)c1ccc(F)cc1)CC2", "note": "[Fluspirilene]", "values": [
      {"measurement": "phospholipidosis inducer class", "setting": "A549 cells; DIPL relative to amiodarone", "value": "medium (key: > 50% of the strong phospholipidosis inducer amiodarone; medium: 50% > DIPL > 25% of amiodarone)"}
    ]},
    {"compound": "COc1cc2c(cc1OC)CN(CCc1ccc(NC(=O)c3cccc4c(=O)c5cccc(OC)c5[nH]c34)cc1)CC2", "note": "[Elacridar]", "values": [
      {"measurement": "induction of phospholipidosis", "setting": "A549 cells", "value": "non-phospholipidosis inducing"},
      {"measurement": "effect on lung viral titer / viral propagation in mice", "setting": "SARS-CoV-2 [2]", "value": "modest antiviral effect"},
      {"measurement": "dose above which mice exhibited toxicities", "setting": "SARS-CoV-2 [2]; mice, i.p. once per day", "value": "higher than 3 mg/kg"}
    ]}
  ]
}
